In US20220194960A1, “WEE1 INHIBITOR AND PREPARATION AND USE THEREOF” (SHOUYAO HOLDINGS (BEIJING) CO., LTD., priority 2019, published 2022) one finds IC50 data, which are given here for 22 compounds.

pIC50: −log10 of the molar value.

In test [1] the target is T1, WEE1 kinase (Homo sapiens, UniProt P30291).
T1 construct: purchased Carna bioscience
Kind of test: WEE1 kinase binding assay (LanthaScreen EU). To be noted: WEE1 kinase 20 nM, Kinase Tracer 178 100 nM, 23° C. for 60 min, read-out: WEEI (IC50). On the procedure: 1. Assay for WEE1 Kinase Inhibitory Activity (IC50) on Compounds
The WEE1 kinase binding assay was established and optimized with LanthaScreen EU for the determination of the activity of compounds. 10 mM compounds were subjected to ten-fold gradient dilution in 100% DMSO (6 concentrations in total), 5 μL of diluent from each concentration was added to 45 μL of reaction buffer (50 mM HEPES (4-hydroxyethylpiperazine ethanesulfonic acid), pH 7.5, 10 mM MgCl2 (magnesium chloride), 1 mM EGTA (ethylene glycol diethyl ether diamine tetraacetic acid), 0.01% Brij-35 (polyoxyethylene lauryl ether)) for blending. On this basis, 2 μL diluent from each concentration was added to 48 μL of reaction buffer for blending as a 4*compound (final concentrations of 1000, 100, 10, 1, 0.1, 0 nM) for later use. Reaction buffer was used to formulate 4*WEE1 kinase (purchased from Carna bioscience, a final concentration of 20 nM), 4*LanthaScreen EU-anti-GST Antibody (purchased from Invitrogen, PV5594, a fuel concentration of 2 nM), and 4*Kinase Tracer 178 (purchased from Invitrogen, PV5593, a final concentration of 100 nM). 2.5 μL of 4*compound was added to a 384-well plate (OptiPlate-384, purchased from PerkinElmer), followed by adding 2.5 μL of 4*WEE1 kinase, standing for 5 min at room temperature. Then 2.5 μL of 4*LanthaScreen EU-anti-GST Antibody was added followed by 2.5 μL of 4*Kinase Tracer 178. The reaction was started by centrifugation (a total reaction volume of 10 μL). The 384-well plate was wrapped with tin foil paper and placed in an incubator at 23° C. for 60 min. Fluorescence values (excitation at 320 nm, detecting emitted light at 665 nm and 615 nm, and a ratio of the two as enzyme activity) were read on Envision (purchased from PerkinElmer). The enzyme activity of each compound was measured at 6 concentrations, and the IC50 value of the compound was calculated using GraFit6.0 software (Erithacus Software).
The aforementioned “*” refers to multiplying, representing multiples.

Test [2] has as its system Human non-small cell lung cancer cells NCI-H1299. As to the kind of experiment: NCI-H1299 cell proliferation inhibition (CellTiter-Glo). The class given is cell-based. To be noted: cultured 3 days, table head NCI-H1975, method NCI-H1299. On the procedure:
2. Determination of Cell Proliferation Activity of Compounds:
NCI-H1299 cell proliferation inhibition screening method was established using CellTiter-fib detection reagent from Promega.
Human non-small cell lung cancer cells NCI-H1299 were cultured in 25 cm^2 or 75 cm^2 plastic tissue culture flasks (Corning) filled with DMEM (Gibco) medium supplemented with 10% fetal bovine serum (Hyclone) under 37° C., 95% air, and 5% CO2, and subcultured 2-3 times a week.
Cells were seeded at 1000 cells/well in a 96-well cell culture plate (Corning), 195 μL/well, and cultured under 37° C., 95% air, and 5% CO2. The next day test compound was added: 10 mM compounds (dissolved in DMSO) were subjected to 3-fold gradient dilution in DMSO, 2 μL of diluent from each concentration was added to 48 μL of serum-fret medium, and finally 5 μL of the diluted compound was added to the plate seeded with cells. The final concentration of DMSO in the cell culture was 0.1% and the foul concentration of the test compound was 0.3 nM-10 μM. The cells were cultured at 37° C. for 3 days.
For orientation: Cellular ATP, detected with luciferase, serves as a proxy for viable cell number.

T1 sequence (P30291 whole entry): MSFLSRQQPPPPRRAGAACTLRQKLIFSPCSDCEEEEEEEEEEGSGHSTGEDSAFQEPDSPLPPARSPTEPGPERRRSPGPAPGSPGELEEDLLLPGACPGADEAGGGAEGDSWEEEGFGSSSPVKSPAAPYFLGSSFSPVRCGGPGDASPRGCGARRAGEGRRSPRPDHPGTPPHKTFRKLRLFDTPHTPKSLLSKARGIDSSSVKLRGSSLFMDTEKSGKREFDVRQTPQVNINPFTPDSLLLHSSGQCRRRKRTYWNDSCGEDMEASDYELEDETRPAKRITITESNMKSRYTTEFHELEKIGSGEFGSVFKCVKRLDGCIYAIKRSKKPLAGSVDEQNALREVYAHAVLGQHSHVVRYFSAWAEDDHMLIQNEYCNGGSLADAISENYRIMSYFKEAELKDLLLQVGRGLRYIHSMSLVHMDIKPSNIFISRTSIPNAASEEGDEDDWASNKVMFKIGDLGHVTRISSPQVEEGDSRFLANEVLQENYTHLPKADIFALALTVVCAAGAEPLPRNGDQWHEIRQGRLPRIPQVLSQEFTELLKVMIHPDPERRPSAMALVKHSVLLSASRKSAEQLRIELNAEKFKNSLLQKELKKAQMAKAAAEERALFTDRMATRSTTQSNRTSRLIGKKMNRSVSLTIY

For the compound `CCCc1c(F)c2cnc(Nc3ccc(N4CCN(C)CC4)cc3)nc2n1-c1cccc(N=S(C)(C)=O)n1` [Example 1, ((6-(5-fluoro-2-((4-(4-methylpiperazin-1-yl)phenyl)amino)-6-propyl-7H-pyrrolo[2,3-d]pyrimidin-7-yl)pyridin-2-yl)imino)dimethyl-λ^6-sulfanone], the pIC50 – broadly, the negative decadic logarithm of the IC50, by convention in mol/L – in test [1] is 9.24; in test [2] (Homo sapiens, 72 h), 7.37. On to `CCCc1cc2cnc(Nc3ccc(N4CCN(C)CC4)cc3)nc2n1-c1cccc(C(C)(C)O)n1` [Example 2, 2-(6-(2-((4-(4-methylpiperazin-1-yl)phenyl)amino)-6-propyl-7H-pyrrolo[2,3-d]pyrimidin-7-yl)pyridin-2-yl)propan-2-ol], for which, in test [1], the pIC50 was 9.06. Turning to `CCCc1cc2cnc(Nc3ccc(N4CCN(C)CC4)cc3)nc2n1-c1cccc(N=S(C)(C)=O)n1` [Example 4, ((6-(2-((4 (4-methylpiperazin-1-yl)phenyl)amino)-6-propyl-7H-pyrrolo[2,3-d]pyrimidin-7-yl)pyridin-2-yl)imino)dimethyl-λ^6-sulfanone], the pIC50 was 9.12 in test [1] and 7.48 in test [2] (Homo sapiens, 72 h). With `CC(C)c1cc2cnc(Nc3ccc(N4CCN(C)CC4)cc3)nc2n1-c1cccc(N=S(C)(C)=O)n1` [Example 6, ((6-(6-isopropyl-2-((4 (4-methylpiperazin-1-yl)phenyl)amino)-7H-pyrrolo[2,3-d]pyrimidin-7-yl)pyridin-2-yl)imino)dimethyl-λ^6-sulfanone], the pIC50 in test [1] is 9.02. Take `CCCc1cc2cnc(Nc3ccc(N4CCN(C)CC4)cc3)nc2n1-c1cccc(N=S(C)(C)=O)n1` [Example 7, ((6-(6-propyl-2-((4-(4-methylpiperazin-yl)phenyl)amino)-7H-pyrrolo[2,3-d]pyrimidin-7-yl)pyridin-2-yl)imino)dimethyl-λ^6-sulfanone]: the pIC50 in test [1] was 9.04; in test [2], 7.38. With `Cc1cc2cnc(Nc3ccc(N4CCN(C)CC4)cc3)nc2n1-c1cccc(N=S(C)(C)=O)n1` [Example 13, ((6-(6-methyl-2 ((4 (4-methylpiperazin-1-yl)phenyl)amino)-7H-pyrrolo[2,3-d]pyrimidin-7-yl)pyridin-2-yl)imino)dimethyl-λ^6-sulfanone], the pIC50 is 9.29 in test [1] and 7.23 in test [2] (Homo sapiens, 72 h).

Regarding `CN(C)CCN(C)c1ccc(Nc2ncc3c(F)c(C4CC4)n(-c4cccc(N=S(C)(C)=O)n4)c3n2)cc1` [Example 14, ((6-(5-fluoro-2-((4-((2-(dimethylamino)ethyl)(methyl)amino)phenyl)amino)-6-cyclopropyl-7H-pyrrolo[2,3-d]pyrimidin-7-yl)pyridin-2-yl)imino)dimethyl-λ^6-sulfanone], in test [1], the negative-log IC50 (pIC50) was 9.00. `CN1CCN(c2ccc(Nc3ncc4c(F)c(C5CC5)n(-c5cccc(N=S(C)(C)=O)n5)c4n3)cc2)CC1CO` (stereo not drawn) [Example 27, ((6-(6-cyclopropyl-5-fluoro-2 ((4-(3-hydroxymethyl-4-methylpiperazin-1-yl)phenyl)amino)-7H-pyrrolo[2,3-d]pyrimidin-7-yl)pyridin-2-yl)imino)dimethyl-λ^6-sulfanone]: the pIC50 in test [1] is 9.24; in test [2] (Homo sapiens, 72 h), 7.22. In the case of `CN1CCN(c2ccc(Nc3ncc4c(F)c(C5CC5)n(-c5cccc(N=S(C)(C)=O)n5)c4n3)cc2)C(CO)C1` (stereo not drawn) [Example 28], the values for the negative-log IC50 (pIC50) in test [1] and in test [2] were 8.89 and 7.40, respectively. The matching figures for `CN(C)CCc1ccc(Nc2ncc3c(F)c(C4CC4)n(-c4ccnc(N=S(C)(C)=O)n4)c3n2)cc1` [Example 32, ((6-(5-fluoro-2-((4-(2-(dimethylamino)ethyl)phenyl)amino)-6-cyclopropyl-7H-pyrrolo[2,3-d]pyrimidin-7-yl)pyrimidin-2-yl)imino)dimethyl-λ^6-sulfanone]: 9.16 and 7.51. `CS(C)(=O)=Nc1cccc(-n2c(C3CC3)c(F)c3cnc(Nc4ccc(N5CCC(N6CCOCC6)CC5)cc4)nc32)n1` [Example 35, ((6-(5-fluoro-2-((4-(4-(morpholine 4-yl)piperidin-1-yl)phenyl)amino)-6-cyclopropyl-7H-pyrrolo[2,3-d]pyrimidin-7-yl)pyridin-2-yl)imino)dimethyl-λ^6-sulfanone]: in test [1], the negative-log IC50 (pIC50) was 9.21. Still for that read-out and setting: under `CN1CCN(c2ccc(Nc3ncc4c(F)c(C5CC5)n(-c5cccc(N=S(C)(C)=O)n5)c4n3)cn2)CC1` [Example 37, ((6-(6-cyclopropyl-5-fluoro-2-((6-(4-methylpiperazin-1-yl)pyridin-3-yl)amino)-7H-pyrrolo[2,3-d]pyrimidin-7-yl)pyridin-2-yl)imino)dimethyl-λ^6-sulfanone] stands 8.97; under `COc1cc(Nc2ncc3cc(C4CC4)n(-c4cccc(N=S(C)(C)=O)n4)c3n2)ccc1N1CCN(C)CC1` [Example 38, ((6-(2-(((3-methoxy-4-(4-methylpiperazin-1-yl)phenyl))amino)-6-cyclopropyl-7H-pyrrolo[2,3-d]pyrimidin-7-yl)pyridin-2-yl)imino)dimethyl-λ^6-sulfanone], 9.52.

Regarding `CN1CCN(c2ccc(Nc3ncc4cc(C5CC5)n(-c5cccc(N=S(C)(C)=O)n5)c4n3)cc2F)CC1` [Example 40, ((6-(2-(((3-fluoro-4-(4-methylpiperazin-1-yl)phenyl))amino) 6-cyclopropyl-7H-pyrrolo[2,3-d]pyrimidin-7-yl)pyridin-2-yl)imino)dimethyl-λ^6-sulfanone], the pIC50 in test [1] was 9.29; in test [2] (Homo sapiens, 72 h), 7.38. On to `CN1CCN(C2CCN(c3ccc(Nc4ncc5cc(C6CC6)n(-c6cccc(N=S(C)(C)=O)n6)c5n4)cc3Cl)CC2)CC1` [Example 54], for which the pIC50 in test [1] is 8.98. Still for that read-out and setting: under `CN1CCN(c2ccc(Nc3ncc4cc(C5CC5)n(-c5cccc(C(C)(C)O)n5)c4n3)cc2)CC1` [Example 55, 2-(6-(2-((4-(4-methylpiperazin-1-yl)phenyl)amino)-6-cyclopropyl-7H-pyrrolo[2,3-d]pyrimidin-7-yl)pyridin-2-yl)propan-2-ol] stands 9.01. Same read-out and setting: under `CS(C)(=O)=Nc1cccc(-n2c(C3CC3)c(F)c3cnc(Nc4ccc(C5C[C@H]6CC[C@@H](C5)N6)cc4)nc32)n1` (stereo partly drawn) [Example 63] stands 9.07. On the same count and under the same terms, under `CS(C)(=O)=Nc1cccc(-n2c(C3CC3)c(F)c3cnc(Nc4ccc(N5C[C@H]6CC[C@@H](C5)N6)cc4)nc32)n1` [Example 80, ((6-(2-((4-((1R,5S)-3,8-diazabicyclo[3.2.1]octan-3-yl)phenyl)amino)-6-cyclopropyl-5-fluoro-7H-pyrrolo[2,3-d]pyrimidin-7-yl)pyridin-2-yl)imino)dimethyl-λ^6-sulfanone] stands 8.93.

On to `CCCc1cc2cnc(Nc3ccc(N4CCN(CCN(C)C)CC4)cc3)nc2n1-c1cccc(C(C)(C)O)n1` [Example 109, 2-(6-(6-propyl-2-((4-(4 (2-(dimethylamino)ethyl)piperazin-1-yl)phenyl)amino)-7H-pyrrolo[2,3-d]pyrimidin-7-yl)pyridin-2-yl)propan-2-ol], for which, in test [1], the pIC50 was 8.95. Same read-out and setting: in the case of `CC(C)c1cc2cnc(Nc3ccc(N4CCN(C)CC4)cc3)nc2n1-c1cccc(C(C)(C)O)n1` [Example 141, 2-(6-(6-isopropyl-2-((4-(4-methylpiperazin-1-yl)phenyl)amino)-7H-pyrrolo[2,3-d]pyrimidin-7-yl)pyridin-2-yl)propan-2-ol] it was 9.08.

As to `Cc1cc2cnc(Nc3ccc(N4CCN(C)CC4)cc3)nc2n1-c1cccc(C(C)(C)O)n1` [Example 145, 2-(6-(6-methyl-2-((4 (4-methylpiperazin-1-yl)phenyl)amino)-7H-pyrrolo[2,3-d]pyrimidin-7-yl)pyridin-2-yl)propan-2-ol], in test [1], the pIC50 is 9.22. On the same count and under the same terms, in the case of `CCc1cc2cnc(Nc3ccc(N4CCN(C)CC4)cc3)nc2n1-c1cccc(C(C)(C)O)n1` [Example 159, 2-(6-(6-ethyl-2-((4-(4-methylpiperazin-1-yl)phenyl)amino)-7H-pyrrolo[2,3-d]pyrimidin-7-yl)pyridin-2-yl)propan-2-ol] it was 9.23.
